Assay results from PMC12494099, “Discovery and Characterization of Novel IKZF1/3 Glue Degraders against Multiple Hematological Cancer Cell Lines” (Oncology Research, 2025).
Read-outs that look alike come from different tables or passages of the source.

Legend:
IKZF3 = target: T1, IKZF3 (Homo sapiens, UniProt Q96SW2+Q9UKT9); assay: MS-based quantitative proteomics in NCI-H929 cells; assay type: cell-based; details: NCI-H929, 10 μM, 4 h
T1 construct: endogenous in cells; host or cells: NCI-H929
Description: (§1) NCI-H929 cells were treated with either 10 μM DMSO or 10 μM MGD-C9 for 4 h. Post-treatment, the cells were washed with PBS (pH = 7.2–7.4, 1×) and then lysed in 8M Urea (UA) (comprising 8M urea, 100 mM Tris-HCl, pH = 8.0). Subsequently, the cell lysate was subjected to centrifugation on a high-speed freezing microcentrifuge (#CF1524R; SCILOGEX, Meriden, CT, USA) at […], and the supernatant was collected. Subsequently, the collected supernatant was treated with 10 mM tris (2-carboxyethyl) phosphine hydrochloride (TCEP) to reduce it for 30 min. Following this, cysteine alkylation was performed using 50 mM 2-chloroacetamide (CAA) for an additional 30 min. The denatured proteins were then digested with trypsin (1 μg/μL) at an enzyme-to-protein ratio of 1:50 and incubated at 37°C overnight. The reaction was stopped by adding 0.1% formic acid (FA). The samples were desalted using 100 μL pipette tips packed with C18 discs (3M, Saint Paul, MN, USA). Prior to sample loading, the tips were conditioned sequentially with 80 μL of acetonitrile (ACN), followed by 80 μL of a 1:1 (v/v) mixture of H2O and ACN, and finally with 80 μL of H2O. The conditioned tips were loaded with peptides. Then, they were washed twice with 80 μL of H2O. After that, the peptides were eluted twice using 80 μL of a solution composed of 50% water and 50% acetonitrile (ACN). The resulting eluates were vacuum-dried and then reconstituted in 0.1% formic acid for the subsequent LC-MS/MS analysis.
(§2) The peptide mixtures were analyzed using an EASY-nLC 1200 liquid chromatography system (Thermo Fisher Scientific, WLM, MA, USA) equipped with a custom-made 15 cm C18 column (150 μm ID, 1.9 μm particle size, 100 Å pore size). Peptide separation was performed over a 75-min gradient at a constant flow rate of 600 nL/min. The gradient profile was as follows: 4%–7% buffer B (1 min), 7%–13% buffer B (6 min), 13%–25% buffer B (38 min), 25%–45% buffer B (22 min), 45%–95% buffer B (1 min), followed 95% buffer B (7-min). The buffers used were Buffer A (0.1% formic acid) and Buffer B (0.1% formic acid in 80% acetonitrile). The peptide mixtures were then analyzed using a Q Exactive HF mass spectrometer (Thermo Fisher Scientific). MS data were acquired in data-dependent acquisition (DDA) mode with a dynamic exclusion duration of 15 s. MS1 scans were acquired in positive-ion mode across a mass-to-charge (m/z) range of 300–1400, with a resolution of 120,000 (at m/z 200) and a maximum injection time of 50 ms. Precursor ions were fragmented using higher-energy collision dissociation (HCD) at 27% normalized collision energy. MS2 spectra were collected with an AGC target of 5.0 × 10^4 and a maximum injection time of 20 ms.
(§3) Label-free MS raw data were processed using MaxQuant (v2.4) against the UniProt Human database (https://www.uniprot.org/, downloaded May 2024; 20,434 entries). A strict false discovery rate (FDR) threshold of ≤0.01 was applied at the spectra, protein, and modification levels. Contaminants and reverse database hits were excluded. Default settings were used for all other parameters. Protein groups output by MaxQuant were further analyzed in R (v4.2.1). Student’s t-test, and p-values < 0.01 were considered statistically significant for statistical analyses and a volcano plot was generated with GraphPad Prism 8.0.

IKZF5 = target: T2, IKZF5 (Homo sapiens, UniProt Q9H5V7); assay: MS-based quantitative proteomics in NCI-H929 cells; assay type: cell-based; details: NCI-H929, 10 μM, 4 h; not notably downregulated
T2 construct: endogenous in cells; host or cells: NCI-H929
T2 sequence (Q96SW2 whole entry partner): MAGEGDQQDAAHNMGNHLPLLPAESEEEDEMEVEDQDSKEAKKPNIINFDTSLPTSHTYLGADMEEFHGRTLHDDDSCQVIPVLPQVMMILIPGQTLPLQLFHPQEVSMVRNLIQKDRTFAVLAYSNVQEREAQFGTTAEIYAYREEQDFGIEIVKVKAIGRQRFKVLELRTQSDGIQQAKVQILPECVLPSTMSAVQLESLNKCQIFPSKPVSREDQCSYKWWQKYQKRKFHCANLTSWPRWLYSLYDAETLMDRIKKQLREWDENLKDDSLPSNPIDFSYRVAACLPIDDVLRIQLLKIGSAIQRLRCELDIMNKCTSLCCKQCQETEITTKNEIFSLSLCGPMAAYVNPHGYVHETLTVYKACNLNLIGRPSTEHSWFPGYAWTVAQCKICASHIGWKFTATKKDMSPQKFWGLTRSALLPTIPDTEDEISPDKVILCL
T2 sequence (Q16531 whole entry partner): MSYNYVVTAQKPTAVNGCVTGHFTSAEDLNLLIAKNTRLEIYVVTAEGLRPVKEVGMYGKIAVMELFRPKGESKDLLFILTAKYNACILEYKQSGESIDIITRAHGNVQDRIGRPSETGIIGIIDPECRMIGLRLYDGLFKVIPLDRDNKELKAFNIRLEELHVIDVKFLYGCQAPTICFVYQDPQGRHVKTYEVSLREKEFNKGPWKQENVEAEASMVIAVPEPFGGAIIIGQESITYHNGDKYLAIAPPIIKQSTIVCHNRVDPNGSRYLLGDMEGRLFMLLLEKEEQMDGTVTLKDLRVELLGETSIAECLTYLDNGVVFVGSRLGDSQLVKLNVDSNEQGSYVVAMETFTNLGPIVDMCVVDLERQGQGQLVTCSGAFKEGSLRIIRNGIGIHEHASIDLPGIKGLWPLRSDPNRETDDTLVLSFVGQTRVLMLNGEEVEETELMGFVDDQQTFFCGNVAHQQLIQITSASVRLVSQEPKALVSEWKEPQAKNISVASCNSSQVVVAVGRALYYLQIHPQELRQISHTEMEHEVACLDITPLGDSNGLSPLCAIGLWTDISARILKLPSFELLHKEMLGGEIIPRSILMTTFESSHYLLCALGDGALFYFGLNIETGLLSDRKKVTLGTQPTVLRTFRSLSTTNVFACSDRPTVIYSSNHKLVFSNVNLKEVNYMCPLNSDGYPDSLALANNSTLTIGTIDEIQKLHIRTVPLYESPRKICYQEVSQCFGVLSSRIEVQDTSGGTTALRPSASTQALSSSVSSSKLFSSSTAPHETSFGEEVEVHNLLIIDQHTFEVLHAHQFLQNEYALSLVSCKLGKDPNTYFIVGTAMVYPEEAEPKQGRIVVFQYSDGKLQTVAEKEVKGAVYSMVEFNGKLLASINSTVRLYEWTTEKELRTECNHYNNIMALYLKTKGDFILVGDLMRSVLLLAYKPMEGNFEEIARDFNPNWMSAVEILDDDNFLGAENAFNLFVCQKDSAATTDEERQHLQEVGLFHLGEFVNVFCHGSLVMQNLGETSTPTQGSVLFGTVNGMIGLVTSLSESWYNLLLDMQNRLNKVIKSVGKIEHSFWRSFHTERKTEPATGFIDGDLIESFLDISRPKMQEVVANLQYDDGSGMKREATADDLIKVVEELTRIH
T2 sequence (Q9H5V7 whole entry): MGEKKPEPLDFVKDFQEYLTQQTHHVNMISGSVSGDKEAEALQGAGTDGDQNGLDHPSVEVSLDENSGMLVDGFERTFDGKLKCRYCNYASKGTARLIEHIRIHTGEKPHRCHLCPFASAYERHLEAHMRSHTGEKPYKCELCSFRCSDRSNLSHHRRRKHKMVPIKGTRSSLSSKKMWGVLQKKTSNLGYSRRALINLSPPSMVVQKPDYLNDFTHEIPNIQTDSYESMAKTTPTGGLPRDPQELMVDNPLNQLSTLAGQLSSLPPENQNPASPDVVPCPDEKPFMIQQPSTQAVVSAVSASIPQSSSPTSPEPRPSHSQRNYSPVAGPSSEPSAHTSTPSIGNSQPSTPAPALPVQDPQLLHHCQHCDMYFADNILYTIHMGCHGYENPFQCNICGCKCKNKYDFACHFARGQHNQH
Description: as §1, §2, §3

GSPT1 = target: T3, GSPT1 (Homo sapiens, UniProt P15170); assay: MS-based quantitative proteomics in NCI-H929 cells; assay type: cell-based; details: NCI-H929, 10 μM, 4 h; not notably downregulated
T3 construct: endogenous in cells; host or cells: NCI-H929
T3 sequence (Q96SW2 whole entry partner): as the sequence (Q96SW2 whole entry partner) above
T3 sequence (Q16531 whole entry partner): as the sequence (Q16531 whole entry partner) above
T3 sequence (P15170 whole entry): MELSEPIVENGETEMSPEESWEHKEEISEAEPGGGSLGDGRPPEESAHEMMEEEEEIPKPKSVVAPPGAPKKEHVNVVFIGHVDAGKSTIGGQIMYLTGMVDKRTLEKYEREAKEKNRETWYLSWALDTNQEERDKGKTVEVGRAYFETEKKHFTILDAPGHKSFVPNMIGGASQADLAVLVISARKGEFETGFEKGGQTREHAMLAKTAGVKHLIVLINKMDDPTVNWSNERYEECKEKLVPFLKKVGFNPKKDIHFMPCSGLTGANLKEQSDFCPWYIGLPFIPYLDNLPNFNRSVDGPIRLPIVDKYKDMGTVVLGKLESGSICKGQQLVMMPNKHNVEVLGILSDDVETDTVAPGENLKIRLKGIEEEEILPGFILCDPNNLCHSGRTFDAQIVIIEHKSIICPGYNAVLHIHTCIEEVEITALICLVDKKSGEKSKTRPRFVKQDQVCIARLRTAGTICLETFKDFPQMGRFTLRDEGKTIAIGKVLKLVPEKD
Description: as §1, §2, §3

CK1α = target: T4, CK1α (Homo sapiens, UniProt P48729); assay: MS-based quantitative proteomics in NCI-H929 cells; assay type: cell-based; details: NCI-H929, 10 μM, 4 h; not notably downregulated
T4 construct: endogenous in cells; host or cells: NCI-H929
T4 sequence (Q96SW2 whole entry partner): as the sequence (Q96SW2 whole entry partner) above
T4 sequence (Q16531 whole entry partner): as the sequence (Q16531 whole entry partner) above
T4 sequence (P48729 whole entry): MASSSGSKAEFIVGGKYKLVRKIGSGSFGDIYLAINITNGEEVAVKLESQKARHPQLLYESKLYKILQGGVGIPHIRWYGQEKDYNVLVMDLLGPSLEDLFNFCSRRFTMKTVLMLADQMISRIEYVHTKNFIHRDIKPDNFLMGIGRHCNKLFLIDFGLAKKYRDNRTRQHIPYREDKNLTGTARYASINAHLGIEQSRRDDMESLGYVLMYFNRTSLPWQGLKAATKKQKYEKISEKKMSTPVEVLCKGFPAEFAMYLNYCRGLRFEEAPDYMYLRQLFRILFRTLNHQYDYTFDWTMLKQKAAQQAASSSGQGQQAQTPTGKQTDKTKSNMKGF
Description: as §1, §2, §3

IKZF1 = target: T5, IKZF1 (Homo sapiens, UniProt Q13422+Q96SW2); assay: MS-based quantitative proteomics in NCI-H929 cells; assay type: cell-based; details: NCI-H929, 10 μM, 4 h
T5 construct: endogenous in cells; host or cells: NCI-H929
T5 sequence (Q13422 whole entry): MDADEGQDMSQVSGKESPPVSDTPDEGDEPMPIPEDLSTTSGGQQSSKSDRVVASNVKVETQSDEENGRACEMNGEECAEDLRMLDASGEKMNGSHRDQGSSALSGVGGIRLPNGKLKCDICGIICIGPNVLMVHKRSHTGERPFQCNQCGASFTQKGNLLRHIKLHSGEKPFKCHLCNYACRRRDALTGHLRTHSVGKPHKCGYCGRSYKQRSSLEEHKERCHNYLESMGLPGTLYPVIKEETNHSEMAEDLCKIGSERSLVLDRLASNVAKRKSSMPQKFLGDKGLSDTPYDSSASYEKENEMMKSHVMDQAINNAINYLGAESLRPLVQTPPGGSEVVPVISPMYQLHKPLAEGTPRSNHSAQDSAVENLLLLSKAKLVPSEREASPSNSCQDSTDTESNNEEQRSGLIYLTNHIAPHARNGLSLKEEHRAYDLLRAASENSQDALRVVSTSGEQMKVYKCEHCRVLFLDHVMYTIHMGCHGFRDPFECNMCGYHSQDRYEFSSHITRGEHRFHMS
T5 sequence (Q96SW2 whole entry): as the sequence (Q96SW2 whole entry partner) above
T5 sequence (Q16531 whole entry partner): as the sequence (Q16531 whole entry partner) above
Description: as §1, §2, §3

IKZF2 = IKZF2 (Homo sapiens, UniProt Q9UKS7); assay: MS-based quantitative proteomics in NCI-H929 cells; assay type: cell-based; parameters: endogenous in cells; host or cells: NCI-H929; details: NCI-H929, 10 μM, 4 h; not notably downregulated
Chain of IKZF2 (Q96SW2 whole entry partner): as the sequence (Q96SW2 whole entry partner) above
Chain of IKZF2 (Q16531 whole entry partner): as the sequence (Q16531 whole entry partner) above
Chain of IKZF2 (Q9UKS7 whole entry): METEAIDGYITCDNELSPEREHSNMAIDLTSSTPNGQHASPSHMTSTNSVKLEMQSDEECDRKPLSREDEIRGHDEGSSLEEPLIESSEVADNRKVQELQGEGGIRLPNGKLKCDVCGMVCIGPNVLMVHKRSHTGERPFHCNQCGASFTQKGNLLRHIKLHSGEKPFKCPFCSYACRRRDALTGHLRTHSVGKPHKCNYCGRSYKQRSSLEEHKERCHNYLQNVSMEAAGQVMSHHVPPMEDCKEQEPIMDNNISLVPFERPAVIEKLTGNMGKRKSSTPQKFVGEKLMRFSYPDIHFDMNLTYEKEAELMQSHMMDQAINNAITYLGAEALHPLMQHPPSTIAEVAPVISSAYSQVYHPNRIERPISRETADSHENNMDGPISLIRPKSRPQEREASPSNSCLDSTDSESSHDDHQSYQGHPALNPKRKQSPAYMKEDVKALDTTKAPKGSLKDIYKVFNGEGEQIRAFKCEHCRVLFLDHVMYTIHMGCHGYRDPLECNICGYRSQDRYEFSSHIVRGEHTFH
Description: NCI-H929 cells were treated with either 10 μM DMSO or 10 μM MGD-C9 for 4 h. Post-treatment, the cells were washed with PBS (pH = 7.2–7.4, 1×) and then lysed in 8M Urea (UA) (comprising 8M urea, 100 mM Tris-HCl, pH = 8.0). Subsequently, the cell lysate was subjected to centrifugation on a high-speed freezing microcentrifuge (#CF1524R; SCILOGEX, Meriden, CT, USA) at […], and the supernatant was collected. Subsequently, the collected supernatant was treated with 10 mM tris (2-carboxyethyl) phosphine hydrochloride (TCEP) to reduce it for 30 min. Following this, cysteine alkylation was performed using 50 mM 2-chloroacetamide (CAA) for an additional 30 min. The denatured proteins were then digested with trypsin (1 μg/μL) at an enzyme-to-protein ratio of 1:50 and incubated at 37°C overnight. […]
The peptide mixtures were analyzed using an EASY-nLC 1200 liquid chromatography system (Thermo Fisher Scientific, WLM, MA, USA) equipped with a custom-made 15 cm C18 column (150 μm ID, 1.9 μm particle size, 100 Å pore size). […] The peptide mixtures were then analyzed using a Q Exactive HF mass spectrometer (Thermo Fisher Scientific). […]
Label-free MS raw data were processed using MaxQuant (v2.4) against the UniProt Human database (https://www.uniprot.org/, downloaded May 2024; 20,434 entries). […] Protein groups output by MaxQuant were further analyzed in R (v4.2.1). […]

[1] = Pharmacokinetic study in vivo; parameters: species or system BALB/c mice; details: mice; for MRT inf: read-out: MRT0-inf
Description: BALB/c mice weighing 19–21 g were procured from Beijing Vital River Laboratory Animal Technology Co., Ltd. (Beijing, China). The animals were housed under conditions of constant temperature and humidity, with a 12-h light-dark cycle for lighting. The mice had free access to water and food but were fasted for 12 h before intragastric administration. This study has been approved by the Animal Care and Use Committee Ethics Committee of the National Beijing Center for Drug Safety Evaluation and Research; the approval number is IACUC-DWZX-2024-P557.
Six male BALB/c mice were randomly assigned to two groups, with three mice in each group. MGD-C9 was administered via intravenous (i.v., 2 mg/kg in a solution of 10% DMSO, 2% Tween 80% and 88% H2O) and oral (p.o., 50 mg/kg in the same vehicle) routes to assess its pharmacokinetic (PK) characteristics. Blood samples (0.05 mL) were collected into heparinized tubes at pre-dose and at 0, 0.0833-, 0.25-, 0.5-, 1-, 2-, 4-, 6-, 8-, and 24 h post-administration. Plasma samples were obtained by centrifuging the blood for 10 min.
The plasma supernatant was then stored at −80°C and thawed at room temperature for subsequent analysis. For preparation, 10 μL of plasma was mixed with 10 μL working solution, followed by protein precipitation with 50 μL acetonitrile containing propranolol hydrochloride internal standard (50 ng/mL). After vortexing (1 min) and centrifugation (18,800× g, 10 min, 4°C), the supernatant was collected, diluted two-fold with 50% acetonitrile/water (v/v), and mixed. MGD-C9 plasma concentrations were quantified by LC-MS/MS using Analyst 1.5.1 (Applied Biosystem, Shanghai, China).
Automated peak integration was performed for atlas samples. The peak area ratio (sample/internal standard) was used for concentration regression analysis, applying linear regression with 1/X^2 weighting. Pharmacokinetic parameters (AUC, t1/2, MRT) across administration routes, and Cmax/Tmax after oral dosing, were calculated via non-compartmental analysis using WinNonlin v6.3 (Pharsight, Lawrenceville, GA, USA).
Experimental data were presented as “Mean ± SD” (n = 3).

[2] = male, BALB/c, mouse, plasma, iv, 2 mg/kg
[3] = male, BALB/c, mouse, plasma, po, 50 mg/kg

T1 sequence (Q9UKT9 whole entry): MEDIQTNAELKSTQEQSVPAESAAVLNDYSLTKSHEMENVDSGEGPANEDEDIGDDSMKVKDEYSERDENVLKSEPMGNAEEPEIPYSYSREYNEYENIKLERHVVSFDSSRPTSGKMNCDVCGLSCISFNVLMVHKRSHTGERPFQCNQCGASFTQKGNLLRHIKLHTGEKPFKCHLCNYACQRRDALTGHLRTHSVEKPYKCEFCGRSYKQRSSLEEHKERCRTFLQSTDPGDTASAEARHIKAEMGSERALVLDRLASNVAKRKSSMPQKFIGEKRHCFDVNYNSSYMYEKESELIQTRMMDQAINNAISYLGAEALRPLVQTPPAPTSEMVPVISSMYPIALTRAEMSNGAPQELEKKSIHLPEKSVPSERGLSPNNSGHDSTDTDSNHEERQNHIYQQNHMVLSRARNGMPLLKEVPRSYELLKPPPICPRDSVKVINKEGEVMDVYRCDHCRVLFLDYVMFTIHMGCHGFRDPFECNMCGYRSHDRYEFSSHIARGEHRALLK
T1 sequence (Q96SW2 whole entry): as the sequence (Q96SW2 whole entry partner) above
T1 sequence (Q16531 whole entry partner): as the sequence (Q16531 whole entry partner) above

CN1CCN(Cc2cccc(C(=O)NC3CCC(=O)NC3=O)c2F)C(=O)C1 (stereo not drawn) [MGD-C9, N-(2,6-dioxopiperidin-3-yl)-2-fluoro-3-((4-methyl-2-oxopiperazin-1-yl)methyl)benzamide]
reduction of IKZF3 (proteomics) (IKZF3): ~80.2% | absolute [log2(fold change)] of IKZF5 (IKZF5): less than 1 | absolute [log2(fold change)] of GSPT1 (GSPT1): less than 1 | absolute [log2(fold change)] of CK1α (CK1α): less than 1 | reduction of IKZF1 (proteomics) (IKZF1): approximately 75.1% | absolute [log2(fold change)] of IKZF2 (IKZF2): less than 1 | AUC(0-inf) [1, 2]: 1360 ± 190 ng·h/mL | Cmax [1, 2]: 3690 ± 713 ng/mL | half-life [1, 2]: 12 ± 4.2 min | MRT inf ([1]; male, BALB/c, mouse, plasma, iv, i.v., 2 mg/kg): 15.6 ± 7.2 min | Vd ([1]; male, BALB/c, mouse, plasma, iv, i.v., 2 mg/kg, read-out: Vz): 0.42 ± 0.14 L/kg | bioavailability ([1]; male, BALB/c, mouse, plasma, oral, p.o. 50 mg/kg vs i.v. 2 mg/kg, read-out: F (oral bioavailability)): 33.5% | Tmax [1, 3]: ~30 min | AUC(0-inf) [1, 3]: 11400 ± 553 ng·h/mL | Cmax [1, 3]: 5590 ± 222 ng/mL | half-life [1, 3]: 53.4 ± 13.8 min | MRT inf ([1]; male, BALB/c, mouse, plasma, po, p.o., 50 mg/kg): 90.6 ± 10.2 min | Vz ([1]; p.o., 50 mg/kg): 5.62 ± 1.23 L/kg
